In brackets after ≈: the same amount, converted by molar mass.
Key:
[1] = tested on: KB; test: Cytotoxicity against human KB cells; type: functional
[2] = Cytotoxicity against african green monkey Vero cells; type: cell-based; conditions: chlorocebus sabaeus, read-out: ED50 (the source's name)

CCCCCCCCCCCC[C@H](O)[C@@H](O)CC/C=C\CC[C@@H](O)[C@H]1CCC(CCCCCCCC2=CC(C)OC2=O)O1 (some centres not stated)
ED50 [1]: 6 ×10⁻⁴ ug/ml | CC50 [2]: 0.05 µg/mL (≈ 0.0824 µM)

CCCCCCCCCCCC[C@H](O)[C@@H](O)CCC1OC1CCC1OC1CCC(O)CCCCCC(O)CC1=CC(C)OC1=O (some centres not stated) [BISEPOXYCORIADIENIN]
ED50 [1]: 2.5 ×10⁻⁷ ug/ml | CC50 [2]: 0.013 µg/mL (≈ 0.0203 µM)

CCCCCCCCCCCC[C@H](O)[C@@H](O)CC/C=C\CC[C@@H](O)[C@H]1CCC(CCCCCC(O)CC2=CC(C)OC2=O)O1 (some centres not stated) [CORIACIN]
ED50 [1]: <3 ×10⁻⁷ ug/ml | CC50 [2]: 0.0057 µg/mL (≈ 0.00915 µM)

CCCCCCCCCCCC[C@H](O)[C@@H](O)CC/C=C\CC/C=C\CCC(O)CCCCCC(O)CC1=CC(C)OC1=O (some centres not stated) [CORIADIENIN]
ED50 [1]: 1.6 ×10⁻⁶ ug/ml | CC50 [2]: 0.15 µg/mL (≈ 0.247 µM)

CCCCCCCCCCCCCCC(O)C(O)CC[C@H](O)[C@H]1CC[C@H](CCCCC[C@@H](O)CC2=C[C@H](C)OC2=O)O1 (some centres not stated) [GIGANTETRONENIN]
ED50 [1]: <3 ×10⁻⁷ ug/ml | CC50 [2]: 0.0057 µg/mL (≈ 0.00955 µM)

CC(=O)O[C@H]1C(=O)[C@@]2(C)[C@H]([C@H](OC(=O)c3ccccc3)[C@]3(O)C[C@H](OC(=O)[C@H](O)[C@@H](NC(=O)c4ccccc4)c4ccccc4)C(C)=C1C3(C)C)[C@]1(OC(C)=O)CO[C@@H]1C[C@@H]2O [PACLITAXEL]
EC50 ([1]; Homo sapiens, KB, read-out: ED50 (the source's name)): 0.02 µg/mL (≈ 0.0234 µM) | CC50 [2]: > 0.3 µg/mL

— ChEMBL document CHEMBL1158200, “Coriadienin, the first annonaceous acetogenin with two double bonds isolated from Annona coriaceae” (J Nat Prod, 1996)
